Test results: patent US6500828B1, “Triazolo-pyridazine derivatives as ligands for gaba receptors” (Merck Sharp & Dohme Ltd., priority 1999, dated 2002)

- melting point: 182 °C
SMILES: CCn1ncnc1COc1nn2c(-c3c(F)cccc3F)nnc2cc1C(C)(C)C [Example 3, 3-(2,6-Difluorophenyl)-7-(1,1-dimethylethyl)-6-(2-ethyl-2H-1,2,4-triazol-3-ylmethoxy)-1,2,4-triazolo[4,3-b]pyridazine]
